According to patent publication US9302999B2, “Substituted triazoles as herbicides” (E. I. DU PONT DE NEMOURS AND COMPANY, priority 2012, dated 2016):

Experiments:
Assay type in all cases: in vivo
[1] = system: crabgrass, large (large crabgrass, Digitaria sanguinalis); assay: Test A pre-/postemergence: crabgrass, large
In short: (§1)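 Injury was scored visually on a 0 (no effect) to 100 (complete control) scale versus untreated controls roughly ten days after treatment in the greenhouse. Compounds, formulated in surfactant-containing non-phytotoxic solvent, went on as soil-directed preemergence spray or postemergence to one- to two-leaf plants 2–10 cm tall.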

[2] = system: velvetleaf (Abutilon theophrasti); assay: Test A pre-/postemergence: velvetleaf
In short: as §1

[3] = system: foxtail, giant (giant foxtail, Setaria faberii); assay: Test A pre-/postemergence: foxtail, giant
In short: as §1

[4] = system: wheat (Triticum aestivum); assay: Test A pre-/postemergence: wheat
In short: as §1

corn (Zea mays) = assay: Test A pre-/postemergence: corn
In short: as §1

[5] = system: sedge, umbrella (small-flower umbrella sedge Cyperus difformis); assay: Test B flooded paddy: sedge, umbrella; details: Flood, applied to paddy water at 2-leaf stage, visually evaluated after 13 to 15 days
In short: (§2)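 Plants were grown to the 2-leaf stage, then pots were flooded to 3 cm above the soil and compounds were applied directly into the paddy water. Water depth was held for the whole test; after 13 to 15 days in a greenhouse, injury was visually rated against untreated controls (0 = no effect, 100 = complete control).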

rice (Oryza sativa) = assay: Test B flooded paddy: rice; details: Flood, applied to paddy water at 2-leaf stage, visually evaluated after 13 to 15 days
In short: as §2

[6] = system: ducksalad (Heteranthera limosa); assay: Test B flooded paddy: ducksalad; details: Flood, applied to paddy water at 2-leaf stage, visually evaluated after 13 to 15 days
In short: as §2

[7] = system: barnyardgrass (Echinochloa crus-galli); assay: Test B flooded paddy: barnyardgrass; details: Flood, applied to paddy water at 2-leaf stage, visually evaluated after 13 to 15 days
In short: as §2

[8] = system: barnyardgrass (Echinochloa crus-galli); assay: Test A pre-/postemergence: barnyardgrass
In short: as §1

[9] = system: morningglory (Ipomoea spp.); assay: Test A pre-/postemergence: morningglory
In short: as §1

[10] = system: pigweed (Amaranthus retroflexus); assay: Test A pre-/postemergence: pigweed
In short: as §1

[11] = Postemergence, 125 g ai/ha, 0 to 100 scale, 0 is no effect, 100 is complete control
[12] = Postemergence, 500 g ai/ha, 0 to 100 scale, 0 is no effect, 100 is complete control
[13] = Preemergence, 125 g ai/ha, 0 to 100 scale where 0 is no effect and 100 is complete control
[14] = Preemergence, 500 g ai/ha, 0 to 100 scale (0 no effect, 100 complete control)
[15] = Postemergence, 500 g ai/ha, visual rating on 0 to 100 scale (0 no effect, 100 complete control), approximately ten days

SMILES	Plant response rating, Crabgrass, Large [1, 11]	Plant response rating, Crabgrass, Large [1, 13]	Plant response rating, Crabgrass, Large [1, 14]	Plant response rating, Velvetleaf [2, 11]	Plant response rating, Velvetleaf [2, 13]	Plant response rating, Velvetleaf [2, 14]	Plant response rating, Foxtail, Giant [3, 11]	Plant response rating, Foxtail, Giant [3, 13]	Plant response rating, Foxtail, Giant [3, 14]	Plant response rating, Wheat [4, 11]	Plant response rating, Wheat [4, 13]	Plant response rating, Wheat [4, 14]	Plant response rating, Corn (corn (Zea mays); [11])	Plant response rating, Corn (corn (Zea mays); [13])	Plant response rating, Corn (corn (Zea mays); [14])	Plant response rating, Barnyardgrass [8, 11]	Plant response rating, Barnyardgrass [8, 13]	Plant response rating, Barnyardgrass [8, 14]	Plant response rating, Morningglory [9, 11]	Plant response rating, Morningglory [9, 13]	also measured
CC(C)(C)c1nn(-c2ccc(F)cc2)nc1C(=O)c1ccnc(C(F)(F)F)c1 [Compound 175]	0	0	0	0	0	0	0	0	0	0	0	0	0	0	0	0	0	0	0	0	Crabgrass, Large plant response rating [1, 12]: 0; Velvetleaf plant response rating [2, 12]: 0; Foxtail, Giant plant response rating [3, 12]: 0; Wheat plant response rating [4, 12]: 0; Corn plant response rating (corn (Zea mays); [12]): 0; Plant response rating, Sedge, Umbrella (0 to 100 scale, 0 is no effect, 100 is complete control) ([5]; 125 g ai/ha): 0; Plant response rating, Rice (0 to 100 scale, 0 is no effect, 100 is complete control) (rice (Oryza sativa); 125 g ai/ha): 0; Plant response rating, Ducksalad (0 to 100 scale, 0 is no effect, 100 is complete control) ([6]; 125 g ai/ha): 0; Plant response rating, Barnyardgrass (0 to 100 scale, 0 is no effect, 100 is complete control) ([7]; 125 g ai/ha): 0; Barnyardgrass plant response rating [8, 12]: 0; Morningglory plant response rating [9, 12]: 0; Plant response rating, Morningglory [9, 14]: 0; Plant response rating, Pigweed [10, 11]: 0; Pigweed plant response rating [10, 12]: 0; Plant response rating, Pigweed [10, 13]: 0; Plant response rating, Pigweed [10, 14]: 0
CC(C)c1nn(-c2ccc(F)cc2)nc1Cc1cccc(C(F)(F)F)c1 [Compound 150]	0	0	0	0	0	0	0	0	0	0	0	0	0	0	0	0	0	0	0	0	Crabgrass, Large plant response rating [1, 15]: 20; Velvetleaf plant response rating [2, 15]: 10; Foxtail, Giant plant response rating [3, 15]: 0; Wheat plant response rating [4, 15]: 0; Corn plant response rating (corn (Zea mays); [15]): 10; Plant response rating, Sedge, Umbrella (0 to 100 scale, 0 is no effect, 100 is complete control) ([5]; 250 g ai/ha): 0; Plant response rating, Rice (0 to 100 scale, 0 is no effect, 100 is complete control) (rice (Oryza sativa); 250 g ai/ha): 0; Plant response rating, Ducksalad (0 to 100 scale, 0 is no effect, 100 is complete control) ([6]; 250 g ai/ha): 0; Plant response rating, Barnyardgrass (0 to 100 scale, 0 is no effect, 100 is complete control) ([7]; 250 g ai/ha): 20; Barnyardgrass plant response rating [8, 15]: 0; Morningglory plant response rating [9, 15]: 0; Plant response rating, Morningglory [9, 14]: 0; Plant response rating, Pigweed [10, 11]: 10; Pigweed plant response rating [10, 15]: 50; Plant response rating, Pigweed [10, 13]: 0; Plant response rating, Pigweed [10, 14]: 0
